MIC data for four molecules are collected here from US4544658A, “1-Cyclopropyl-6-fluoro-1,4-dih ydro-4-oxo-7-(alkyl-1-piperazinyl)quinoline-3-carboxylic acids, processes for their preparation and antibacterial agents containing them” (Bayer Aktiengesellschaft, priority 1982, dated 1985).

Structures are written as SMILES. Converted amounts (≈) assume the structure as drawn.

What all share (test): MIC, agar dilution test; Denley multipoint inoculation procedure
What all share (format): cell-based
(In general: In agar dilution, organisms are placed on agar that contains the substance at set levels.)

One assay has as its system E. coli Neumann. Conditions: Escherichia coli, read-out: Minimum inhibitory concentration (MIC).
The next assay relates to Staphylococcus 1756. As to conditions: read-out: Minimum inhibitory concentration (MIC).
The next assay deals with Serratia 16040. Conditions: read-out: Minimum inhibitory concentration (MIC).
The next assay deals with Klebsiella 6179. As to conditions: read-out: Minimum inhibitory concentration (MIC).
In another assay the test system is Staphylococcus Fk422. Conditions: read-out: Minimum inhibitory concentration (MIC).
A further assay concerns Staphylococcus 133. As to conditions: read-out: Minimum inhibitory concentration (MIC).
In another assay the test system is Klebsiella 8085. As to conditions: read-out: Minimum inhibitory concentration (MIC).
In another assay the test system is Klebsiella 57 USA. As to conditions: read-out: Minimum inhibitory concentration (MIC).
Another assay relates to Providencia 12052. Conditions: read-out: Minimum inhibitory concentration (MIC).

Take `CC1CN(c2cc3c(cc2F)c(=O)c(C(=O)O)cn3C2CC2)CCN1` (stereo not drawn) [Example 1, 1-cyclopropyl-6-fluoro-1,4-dihydro-4-oxo-7-(3-methyl-1-piperazinyl)quinoline-3-carboxylicacid semihydrate]: the MIC in the assay on E. coli Neumann is no more than 0.015 µg/mL; in the assay on Staphylococcus 1756, 0.25 µg/mL; in the assay on Serratia 16040, 4 µg/mL; with Klebsiella 6179, 0.125 µg/mL; in the assay on Staphylococcus Fk422, 0.25 µg/mL; in the assay with Staphylococcus 133, 0.25 µg/mL. The MIC was no more than 0.015 µg/mL with Klebsiella 8085, 0.03 µg/mL in the assay with Klebsiella 57 USA and 16 µg/mL in the assay on Providencia 12052.
Turning to `C[C@@H]1CN(c2cc3c(cc2F)c(=O)c(C(=O)O)cn3C2CC2)C[C@H](C)N1` [Example 3, 1-cyclopropyl-6-fluoro-1,4-dihydro-4-oxo-7-(3,5-dimethyl-1-piperazinyl)quinoline-3-carboxylic acid], the MIC with E. coli Neumann was no more than 0.015 µg/mL; with Staphylococcus 1756 it was 0.25 µg/mL (≈ 0.696 µM); in the assay with Serratia 16040, 16 µg/mL (≈ 44.5 µM); in the assay with Klebsiella 6179, 0.25 µg/mL (≈ 0.696 µM); in the assay on Staphylococcus Fk422, 0.5 µg/mL (≈ 1.39 µM); in the assay on Staphylococcus 133, 0.25 µg/mL (≈ 0.696 µM). For the same molecule, the values for the MIC in the assay with Klebsiella 8085, in the assay on Klebsiella 57 USA and in the assay with Providencia 12052 were no more than 0.015 µg/mL, 0.125 µg/mL (≈ 0.348 µM) and 16 µg/mL (≈ 44.5 µM), respectively.
With `CCN1CCN(c2cc3c(cc2F)c(=O)c(C(=O)O)cn3C2CC2)CC1C.I.O` (stereo not drawn) [Example 4, 1-cyclopropyl-6-fluoro-1,4-dihydro-4-oxo-7-(4-ethyl-3-methyl-1-piperazinyl)quinoline-3-carboxylic acid hydriodide monohydrate], the MIC with E. coli Neumann is 0.03 µg/mL; in the assay on Staphylococcus 1756 it was 0.5 µg/mL; in the assay on Serratia 16040 it was 16 µg/mL; in the assay with Klebsiella 6179 it was 0.25 µg/mL; with Staphylococcus Fk422, 0.5 µg/mL; with Staphylococcus 133, 0.25 µg/mL. The results for the MIC in the assay on Klebsiella 8085, with Klebsiella 57 USA and in the assay on Providencia 12052 were no more than 0.015 µg/mL, 0.25 µg/mL and 32 µg/mL, respectively.
Turning to `CCN1[C@H](C)CN(c2cc3c(cc2F)c(=O)c(C(=O)O)cn3C2CC2)C[C@@H]1C` [Example 5, 1-cyclopropyl-6-fluoro-1,4-dihydro-4-oxo-7-(4-ethyl-3,5-dimethyl-1-piperazinyl)quinoline-3-carboxylic acid hydriodide], the MIC in the assay on E. coli Neumann amounted to 0.03 µg/mL (≈ 0.0774 µM); in the assay on Staphylococcus 1756, 0.5 µg/mL (≈ 1.29 µM); in the assay with Serratia 16040, 32 µg/mL (≈ 82.6 µM); in the assay with Klebsiella 6179, 0.5 µg/mL (≈ 1.29 µM); with Staphylococcus Fk422, 0.5 µg/mL (≈ 1.29 µM); in the assay with Staphylococcus 133 it was 0.5 µg/mL (≈ 1.29 µM). For the same molecule, the results for the MIC in the assay on Klebsiella 8085, in the assay on Klebsiella 57 USA and in the assay on Providencia 12052 were 0.03 µg/mL (≈ 0.0774 µM), 0.5 µg/mL (≈ 1.29 µM) and 32 µg/mL (≈ 82.6 µM), respectively.
